Key:
primary AML = conditions: pharmacological interruption of ERK signaling; cited from earlier work
HIV = conditions: cited from earlier work
[1] = most polar organic solvents and water; cited from earlier work
primary AML cells = assay: Primary AML cultures ex vivo: cell viability, apoptosis assays and Western analysis of ERK; format: cell-based, human; conditions: primary AML samples
Text: In addition to protein kinase C and ERK activation, TPA is a known inducer of NF-κB, a pro-survival transcription factor often constitutively active in AML blasts and leukemic stem cells.

Compound: COc1cccc(-c2cc(=O)c3ccccc3o2)c1N [PD98059]
- primary AML survival (primary AML): decreased primary AML survival

Compound: CC(=O)O[C@@]12C[C@@H](C)[C@@]3(O)[C@@H](C=C(CO)C[C@]4(O)C(=O)C(C)=C[C@@H]34)[C@@H]1C2(C)C [Prostratin, 12-deoxyphorbol 13-acetate]
- HIV induced cell killing and viral replication (HIV): some effectiveness for inhibiting HIV induced cell killing and viral replication
- effect on chronically-infected cell lines (HIV): little or no effect on chronically-infected cell lines
- viral expression in latently-infected cell lines (HIV): activated viral expression in latently-infected cell lines

Compound: O=C(NOCC1CC1)c1ccc(F)c(F)c1Nc1ccc(I)cc1Cl [PD 184352]
- primary AML survival (primary AML): decreased primary AML survival

Compound: N#CC(=C(/N)Sc1ccccc1N)/C(C#N)=C(\N)Sc1ccccc1N [U0126]
- primary AML survival (primary AML): decreased primary AML survival

Compound: CC1=C[C@H]2[C@@]3(O)[C@H](C)[C@@H](O)[C@]4(O)[C@H]([C@@H]3C=C(CO)C[C@]2(O)C1=O)C4(C)C [Phorbol]
- solubility [1]: well soluble in most polar organic solvents and in water

Compound: C[C@@H]1C[C@H]2[C@@H]3CCC4=CC(=O)C=C[C@]4(C)[C@@]3(F)[C@@H](O)C[C@]2(C)[C@@]1(O)C(=O)CO [dexamethasone, reference compound]
- effect on TPA cytotoxicity (primary AML cells): enhance TPA cytotoxicity

Reference: patent US9636317B2, “Compositions and methods of use of phorbol esters” (priority 2007, dated 2017)
